pKi: −log10 of the molar value. Where two headings read alike, the source gives them in different places.
Legend:
Bovine cathepsin S = biological target: T1, Bovine cathepsin S (Bos taurus, UniProt P25326); assay: Cathepsin S peptidase activity assay, bovine enzyme (Ki); type: biochemical
T1 construct: purchased CN Biosciences
In short: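 Bovine cathepsin S activity followed by fluorescence increase from substrate conversion to product over time, enzyme added to start the reaction, at 25±1° C. Buffer 10 mM bis-tris-propane pH 6.5 with 1 mM EDTA, 5 mM 2-mercaptoethanol, 1 mM CaCl2; DMSO kept below 1% (vol./vol.).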

human cathepsin B = biological target: T2, human cathepsin B (Homo sapiens, UniProt P07858); assay: Cathepsin B peptidase activity assay (Ki); type: biochemical; conditions: read-out: Ki, inhibitors of cathepsin B
T2 construct: purchased CN Biosciences
In short: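 Buffer: 10 mM bis-tris-propane pH 6.5, 1 mM EDTA, 5 mM 2-mercaptoethanol, 1 mM CaCl2; DMSO <1%. Ki assumed reversible, pure-competitive, from Ki^app=Ki(1+[So]/KM^app) by non-linear regression.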

[1] = Table 5, read-out: Ki Bovine Cathepsin S
[2] = species of cathepsin S not given, read-out: Ki, inhibitors of cathepsin S

T1 sequence (P25326 115-331): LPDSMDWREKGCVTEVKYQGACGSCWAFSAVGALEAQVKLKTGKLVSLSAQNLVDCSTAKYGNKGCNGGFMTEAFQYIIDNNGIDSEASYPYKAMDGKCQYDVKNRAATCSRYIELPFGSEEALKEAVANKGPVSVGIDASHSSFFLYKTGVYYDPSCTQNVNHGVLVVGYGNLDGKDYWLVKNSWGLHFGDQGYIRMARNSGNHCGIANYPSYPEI

| SMILES | pKi (Bovine cathepsin S; [1]) | pKi (human cathepsin B) | pKi (Bovine cathepsin S; [2]) |
| --- | --- | --- | --- |
| CC(C)C[C@H](NC(=O)c1ccc(-c2cccs2)cc1)C(=O)N1CC[C@@H]2[C@H]1C(=O)CN2C(=O)c1ccccc1 [Example 2, (3aR,6aS)-N-[(1S)-1-(4-Benzoyl-6-oxo-hexahydro-pyrrolo[3,2-b]pyrrole-1-carbonyl)-3-methyl-butyl]-4-thiophen-2-yl-benzamide] | < 6.00 | > 5.30 | – |
| CC(C)C[C@H](NC(=O)c1ccc(N(C)C)cc1)C(=O)N1CC[C@@H]2[C@H]1C(=O)CN2C(=O)c1csc2ccccc12 [Example 103, (3aR,6aS)-N-{(1S)-1-[4-(Benzo[b]thiophene-3-carbonyl)-6-oxo-hexahydro-pyrrolo[3,2-b]pyrrole-1-carbonyl]-3-methyl-butyl}-4-dimethylamino-benzamide] | – | > 5.30 | > 5.30 |
| CC(C)C[C@H](NC(=O)c1ccc(N(C)C)cc1)C(=O)N1CC[C@@H]2[C@H]1C(=O)CN2C(=O)[C@@H](NC(=O)OCc1ccccc1)C(C)C [Example 158, (3aS,6aR)-((S)-1-{4-[(2S)-2-(4-Dimethylamino-benzoylamino)-4-methyl-pentanoyl]-3-oxo-hexahydro-pyrrolo[3,2-b]pyrrole-1-carbonyl}-2-methyl-propyl)-carbamic acid benzyl ester] | – | > 5.30 | > 5.30 |
| CC(=O)N[C@@H](CC(C)C)C(=O)N1CC(=O)[C@@H]2[C@H]1CCN2C(=O)[C@H](CC(C)C)NC(=O)c1ccc(N(C)C)cc1 [Example 151, (3aR,6aS)-N-{(1S)-1-[4-((2S)-2-Acetylamino-4-methyl-pentanoyl)-6-oxo-hexahydro-pyrrolo[3,2-b]pyrrole-1-carbonyl]-3-methyl-butyl}-4-dimethylamino-benzamide] | – | > 5.30 | > 5.30 |
| CC(C)C[C@H](NC(=O)c1ccc2ncsc2c1)C(=O)N1CC[C@@H]2[C@H]1C(=O)CN2C(=O)c1ccccc1 [Example 90, (3aR,6aS)-Benzothiazole-6-carboxylic acid [(1S)-1-(4-benzoyl-6-oxo-hexahydro-pyrrolo[3,2-b]pyrrole-1-carbonyl)-3-methyl-butyl]-amide] | – | > 5.30 | > 5.30 |
| CC(C)CC(NC(=O)c1ccc(N)cc1)C(=O)N1NC[C@@H]2[C@H]1C(=O)CN2C(=O)c1ccccc1 (stereo partly drawn) [Example 249b, (3aR,6aS)-4-amino-N-[1-(4-benzoyl-6-oxo-hexahydropyrrolo[3,2-c]pyrazole-1-carbonyl)-3-methylbutyl)benzamide] | – | > 5.30 | > 5.30 |
| CC(C)C[C@H](NC(=O)c1ccc(-n2cccn2)cc1)C(=O)N1CC[C@@H]2[C@H]1C(=O)CN2C(=O)c1ccccc1 [Example 91, (3aR,6aS)-N-[(1S)-1-(4-Benzoyl-6-oxo-hexahydro-pyrrolo[3,2-b]pyrrole-1-carbonyl)-3-methyl-butyl]-4-pyrazol-1-yl-benzamide] | – | > 5.30 | > 5.30 |
| CC(C)C[C@H](NC(=O)c1ccc(N2CCNCC2)cc1)C(=O)N1CC[C@@H]2[C@H]1C(=O)CN2C(=O)c1ccccc1 [Example 194, (3aR,6aS)-N-[(1S)-1-(4-Benzoyl-6-oxo-hexahydro-pyrrolo[3,2-b]pyrrole-1-carbonyl)-3-methyl-butyl]-4-piperazin-1-yl-benzamide] | – | > 5.30 | > 5.30 |
| CC(C)C[C@H](NC(=O)c1cccc(N(C)C)c1)C(=O)N1CC[C@@H]2[C@H]1C(=O)CN2C(=O)c1cccc(S(C)(=O)=O)c1 [Example 59, (3aR,6aS)-3-Dimethylamino-N-{(1S)-1-[4-(3-methanesulfonyl-benzoyl)-6-oxo-hexahydro-pyrrolo[3,2-b]pyrrole-1-carbonyl]-3-methyl-butyl}-benzamide] | – | > 5.30 | > 5.30 |
| CC(C)C[C@H](NC(=O)c1ccc(N(C)C)cc1)C(=O)N1CC[C@@H]2[C@H]1C(=O)CN2C(=O)c1ccccc1 [Example 14, (3aR,6aS)-N-[(1S)-1-(4-Benzoyl-6-oxo-hexahydro-pyrrolo[3,2-b]pyrrole-1-carbonyl)-3-methyl-butyl]-4-dimethylamino-benzamide] | – | > 5.30 | > 5.30 |
| CC(C)C[C@H](NC(=O)c1ccc(N)cc1)C(=O)N1NC[C@@H]2[C@H]1C(=O)CN2C(=O)c1cccc(S(C)(=O)=O)c1 [Example 249c, (3aR,6aS)-4-amino-N-{(1S)-1-[4-(3-methanesulfonylbenzoyl)-6-oxo-hexahydropyrrolo [3,2-c]pyrazole-1-carbonyl]-3-methylbutyl}benzamide] | – | > 5.30 | > 5.30 |
| CC(C)C[C@H](NC(=O)c1ccc2c(c1)CCCN2)C(=O)N1CC[C@@H]2[C@H]1C(=O)CN2C(=O)c1ccccc1 [Example 87, (3aR,6aS)-1,2,3,4-Tetrahydro-quinoline-6-carboxylic acid [(1S)-1-(4-benzoyl-6-oxo-hexahydro-pyrrolo[3,2-b]pyrrole-1-carbonyl)-3-methyl-butyl]-amide] | – | > 5.30 | > 5.30 |
| CC(C)C[C@H](NC(=O)c1cccc(N2CCNCC2)c1)C(=O)N1CC[C@@H]2[C@H]1C(=O)CN2C(=O)c1ccccc1 [Example 247, (3aR,6aS)-N-[(1S)-1-(4-Benzoyl-6-oxo-hexahydro-pyrrolo[3,2-b]pyrrole-1-carbonyl)-3-methyl-butyl]-3-piperazin-1-yl-benzamide] | – | > 5.30 | > 5.30 |
| CC(C)(C)c1ccc(C(=O)N[C@@H](Cc2ccc(O)cc2)C(=O)N2CC[C@@H]3[C@H]2C(=O)CN3C(=O)c2ccccc2)cc1 [Example 346, (3aR,6aS)-N-[(1S)-2-(4-Benzoyl-6-oxo-hexahydro-pyrrolo[3,2-b]pyrrol-1-yl)-1-(4-hydroxybenzyl)-2-oxo-ethyl]-4-tert-butyl-benzamide] | < 5.00 | – | – |
| O=C(N[C@@H](CC1CCCCC1)C(=O)N1CC[C@@H]2[C@H]1C(=O)CN2C(=O)c1ccccc1)c1ccsc1 [Example 250, (3aR,6aS)-Thiophene-3-carboxylic acid [(1S)-2-(4-benzoyl-6-oxo-hexahydro-pyrrolo[3,2-b]pyrrole-1-yl)-1-cyclohexylmethyl-2-oxo-ethyl]-amide] | > 7.00 | – | – |
| CC(C)C[C@H](NC(=O)c1ccc(C(C)(C)C)cc1)C(=O)N1NC[C@@H]2[C@H]1C(=O)CN2C(=O)c1ccccc1 [Example 249a, (3aR,6aS)-N-[(1S)-1-(4-benzoyl-6-oxo-hexahydropyrrolo[3,2-c]pyrazole-1-carbonyl)-3-methylbutyl]-4-tert-butylbenzamide] | – | > 5.30 | > 5.30 |
| CC(C)C[C@H](NC(=O)c1cc2ccccc2s1)C(=O)N1CC[C@@H]2[C@H]1C(=O)CN2C(=O)c1ccccc1 [Example 7, (3aR,6aS)-Benzo[b]thiophene-2-carboxylic acid [(1S)-1-(4-benzoyl-6-oxo-hexahydro-pyrrolo[3,2-b]pyrrole-1-carbonyl)-3-methyl-butyl]-amide] | – | > 5.30 | > 5.30 |
| O=C(N[C@@H](Cc1ccc(O)cc1)C(=O)N1CC[C@@H]2[C@H]1C(=O)CN2C(=O)c1ccccc1)c1cccc2ccccc12 [Example 296, (3aR,6aS)-Naphthalene-1-carboxylic acid [(1S)-2-(4-benzoyl-6-oxo-hexahydro-pyrrolo[3,2-b]pyrrole-1-yl)-1-(4-hydroxybenzyl)-2-oxo-ethyl]-amide] | < 5.30 | > 5.30 | – |
| CC(C)C[C@H](NC(=O)c1ccc(OC(F)(F)F)cc1)C(=O)N1CC[C@@H]2[C@H]1C(=O)CN2C(=O)c1ccccc1 [Example 173, (3aR,6aS)-N-[(1S)-1-(4-Benzoyl-6-oxo-hexahydro-pyrrolo[3,2-b]pyrrole-1-carbonyl)-3-methyl-butyl]-4-trifluoromethoxy-benzamide] | – | > 5.30 | > 5.30 |
